Results: patent US20060105330A1, “Diagnostics and remedies for malignant brain tumor” (Institute of gene and brain science, priority 2002, published 2006)

Tested on: RFX1 gene expression in human glioma U251 cells
Assay: RFX1 gene re-expression by 5-azacytidine and trichostatin A treatment, RT-PCR
Type: cell-based
Settings: single inhibitor, compared with the control, 5-azacytidine 500 nM for 3 days, trichostatin A 500 ng/ml for 24 hours
Experimental: Total RNAs derived from human glioma tissues (GB4, GB13, GB16, and GB17) and human glioma cell lines were extracted with Trizol (manufactured by GIBCO), and total RNAs of normal tissues were purchased from Clontech. cDNAs were synthesized from 10 μg of each of total RNAs using the reverse transcriptase XL (AMV) (manufactured by Takara Shuzo Co., Ltd.) in a final volume of 10 μl. PCR was performed in the system in a total volume of 25 μl, using 1 μl cDNA template and Takara Taq™ (manufactured by Takara Shuzo Co., Ltd.). […]
The resulting PCR products were electrophoresed on 2% agarose gel and analyzed by ethidium bromide staining.
Human glioma cell lines were plated at a low density, incubated for 24 hours, and then 5-azacytidine (methyltransferase inhibitor) (manufactured by Sigma Chemical Co.) was added at a final concentration of 500 nM. […] PCR was then performed and changes in gene expression were analyzed using each agent.
To investigate the relationship between reduction or loss of expression of the RFX1 and BGT-1 genes in glioma and DNA methylation or histone deacetylation, change in expression of each gene was analyzed using the RT-PCR method, either after treatment of human glioma cell lines with the methyltransferase inhibitor 5-azacytidine and the histone deacetylase inhibitor trichostatin A singly or after treatment of cells with both inhibitors.

Compound | change in expression of the RFX1 gene (RT-PCR)
CC(/C=C/C(=O)NO)=C\[C@@H](C)C(=O)c1ccc(N(C)C)cc1 [trichostatin A] | enhancement of expression
Nc1ncn([C@@H]2O[C@H](CO)[C@@H](O)[C@H]2O)c(=O)n1 [5-azacytidine] | enhancement of expression
